Measured values from patent publication US9434711B2 (Janssen Pharmaceutica, NV, priority 2007, dated 2016).

Target: canine TRPM8 (Canis lupus familiaris, UniProt Q1A7N1)
Assay: In Vitro Canine TRPM8 Functional Assay (Ca2+ fluorescence, icilin activation)
Type: cell-based
Conditions: for IC50: HEK293 cells stably expressing canine TRPM8, icilin activation, eight-point dose-response, read-out: IC50; for inhibition at 0.2 µM / % Inh @ 0.2 (μM): compound at 0.2 μM, canine TRPM8, icilin activation; for inhibition at 0.2 µM: read-out: % Inh @ 0.2
Method in brief: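 HEK293 cells stably expressing canine TRPM8 loaded with Calcium 3 dye; compound added and Ca2+ fluorescence monitored 5 min before icilin at a final level giving ~80% maximal response, read on FLIPR or FDSS. EC50 or IC50 from eight-point dose-response, quadruplicate wells per point.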

Sequence of canine TRPM8 (Q1A7N1 1-1104): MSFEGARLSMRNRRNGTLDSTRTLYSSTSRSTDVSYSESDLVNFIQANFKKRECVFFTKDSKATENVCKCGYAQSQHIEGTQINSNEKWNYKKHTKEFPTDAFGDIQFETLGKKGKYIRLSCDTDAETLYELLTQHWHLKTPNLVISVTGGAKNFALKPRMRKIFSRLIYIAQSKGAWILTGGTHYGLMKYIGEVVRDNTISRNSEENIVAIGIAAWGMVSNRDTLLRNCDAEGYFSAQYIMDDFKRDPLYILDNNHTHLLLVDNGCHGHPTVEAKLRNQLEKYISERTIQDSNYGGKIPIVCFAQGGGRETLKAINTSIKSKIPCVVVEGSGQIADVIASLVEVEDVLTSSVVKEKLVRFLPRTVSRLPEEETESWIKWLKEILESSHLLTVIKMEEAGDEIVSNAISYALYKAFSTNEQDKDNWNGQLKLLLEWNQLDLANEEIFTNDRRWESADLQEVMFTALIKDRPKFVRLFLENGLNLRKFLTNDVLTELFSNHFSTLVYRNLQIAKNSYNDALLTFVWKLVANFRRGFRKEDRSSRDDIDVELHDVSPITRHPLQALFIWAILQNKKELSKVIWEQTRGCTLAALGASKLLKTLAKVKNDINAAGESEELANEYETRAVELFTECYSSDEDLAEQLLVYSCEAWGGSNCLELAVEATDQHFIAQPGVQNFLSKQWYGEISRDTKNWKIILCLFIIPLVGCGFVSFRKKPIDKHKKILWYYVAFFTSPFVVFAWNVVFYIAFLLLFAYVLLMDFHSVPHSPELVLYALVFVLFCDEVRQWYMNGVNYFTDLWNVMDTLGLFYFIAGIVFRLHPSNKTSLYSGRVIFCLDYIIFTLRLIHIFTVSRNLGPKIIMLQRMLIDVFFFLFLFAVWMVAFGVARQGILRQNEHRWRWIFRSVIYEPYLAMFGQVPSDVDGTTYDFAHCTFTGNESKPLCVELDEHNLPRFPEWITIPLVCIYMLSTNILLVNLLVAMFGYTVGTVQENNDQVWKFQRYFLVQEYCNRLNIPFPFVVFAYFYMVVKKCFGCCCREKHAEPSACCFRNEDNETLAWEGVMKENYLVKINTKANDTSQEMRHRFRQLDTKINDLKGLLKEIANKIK

Cc1c(N(Cc2ccc(F)c(C(F)(F)F)c2)S(=O)(=O)CCC=O)sc2ccccc12 [Compound 724, N-(4-Fluoro-3-trifluoromethyl-benzyl)-N-(3-methyl-benzo[b]thiophen-2-yl)-3-oxo-propane-1-sulfonamide]
IC50: 0.0053 µM | inhibition at 0.2 µM: 102%

Cc1c(N(Cc2ccc(F)c(C(F)(F)F)c2)S(=O)(=O)CCC(C)(C)O)sc2ccccc12 [Compound 725, N-(4-Fluoro-3-trifluoromethyl-benzyl)-N-(3-methyl-benzo[b]thiophen-2-yl)-3-hydroxy-3-methyl-butane-1-sulfonamide]
IC50: 0.0078 µM | inhibition at 0.2 µM: 102%

Cc1c(N(CCC2CC2)S(=O)(=O)c2nc3ccccc3[nH]2)sc2ccccc12 [Compound 726, N-(Cyclopropyl-ethyl)-N-(3-methyl-benzo[b]thiophen-2-yl)-1H-benzimidazole-2-sulfonamide]
IC50: 0.0903 µM | inhibition at 0.2 µM: 69%

Cc1c(N(CCCCC(F)(F)F)S(=O)(=O)c2nc3ccccc3[nH]2)sc2ccccc12 [Compound 727, N-(3-Methyl-benzo[b]thiophen-2-yl)-N-(5,5,5,-trifluoro-pentyl)-1H-benzimidazole-2-sulfonamide]
% Inh @ 0.2 (μM): 16%

Cc1c(N(Cc2ccc(F)c(C(F)(F)F)c2)S(=O)(=O)c2nc3ccccc3[nH]2)sc2ccccc12 [Compound 728, N-(3-Methyl-benzo[b]thiophen-2-yl)-N-(4-fluoro-3-trifluoromethyl-benzyl)-1H-benzimidazole-2-sulfonamide]
inhibition at 0.2 µM: 44%

Cc1c(N(Cc2ccc(OC(F)(F)F)cc2)S(=O)(=O)c2nc3ccccc3[nH]2)sc2ccccc12 [Compound 729, N-(3-Methyl-benzo[b]thiophen-2-yl)-N-(4-trifluoromethoxy-benzyl)-1H-benzimidazole-2-sulfonamide]
inhibition at 0.2 µM: 75%

CC(=O)c1c(N(Cc2ccc(F)cc2)S(=O)(=O)c2ccc(Br)cc2)sc2ccccc12 [Compound 730, N-(3-Acetyl-benzo[b]thiophen-2-yl)-4-bromo-N-(4-fluoro-benzyl)benzene-sulfonamide]
IC50: 0.0236 µM | inhibition at 0.2 µM: 100%

CC(=O)c1c(N(Cc2ccc(OC(F)(F)F)cc2)S(=O)(=O)c2ccc(Br)cc2)sc2ccccc12 [Compound 731, N-(3-Acetyl-benzo[b]thiophen-2-yl)-4-bromo-N-(4-(trifluoromethoxy)-benzyl)benzenesulfonamide]
IC50: 0.0444 µM | inhibition at 0.2 µM: 87%

CC(=O)c1c(N(Cc2ccccc2)S(=O)(=O)c2ccc(Br)cc2)sc2ccccc12 [Compound 732, N-(3-Acetyl-benzo[b]thiophen-2-yl)-N-(benzyl)-4-bromobenzenesulfonamide]
IC50: 0.0133 µM | inhibition at 0.2 µM: 100%

CC(=O)c1c(N(Cc2ccc(F)c(Cl)c2)S(=O)(=O)c2ccc(Br)cc2)sc2ccccc12 [Compound 733, N-(3-Acetyl-benzo[b]thiophen-2-yl)-4-bromo-N-(3-chloro-4-fluoro-benzyl)benzenesulfonamide]
IC50: 0.0134 µM | inhibition at 0.2 µM: 100%

CC(C)(O)c1c(N(Cc2ccc(F)cc2)S(=O)(=O)c2ccc(Br)cc2)sc2ccccc12 [Compound 734, N-(4-Fluorobenzyl)-N-(3-(1-hydroxy-1-methyl-ethyl)-benzo[b]thiophen-2-yl)-4-bromo-benzenesulfonamide]
IC50: 0.0097 µM | inhibition at 0.2 µM: 102%

CC(C)(O)c1c(N(Cc2ccc(OC(F)(F)F)cc2)S(=O)(=O)c2ccc(Br)cc2)sc2ccccc12 [Compound 735, N-(3-(1-Hydroxy-1-methyl-ethyl)-benzo[b]thiophen-2-yl)-N-(4-trifluoromethoxybenzyl)-4-bromo-benzenesulfonamide]
IC50: 0.0268 µM | inhibition at 0.2 µM: 101%

CC(C)(O)c1c(N(Cc2ccccc2)S(=O)(=O)c2ccc(Br)cc2)sc2ccccc12 [Compound 736, N-(Benzyl)-N-(3-(1-hydroxy-1-methyl-ethyl)-benzo[b]thiophen-2-yl)-4-bromo-benzenesulfonamide]
IC50: 0.0172 µM | inhibition at 0.2 µM: 101%

CC(C)(O)c1c(N(Cc2ccc(F)c(Cl)c2)S(=O)(=O)c2ccc(Br)cc2)sc2ccccc12 [Compound 737, N-(3-Chloro-4-fluorobenzyl)-N-(3-(1-hydroxy-1-methyl-ethyl)-benzo[b]thiophen-2-yl)-4-bromo-benzenesulfonamide]
IC50: 0.0299 µM | inhibition at 0.2 µM: 101%

Cc1c(N(CCC2CC2)S(=O)(=O)c2ccc(N(C)C)cc2)sc2ccccc12 [Compound 738, N-(3-Methyl-benzo[b]thiophen-2-yl)-N-(cyclopropyl-ethyl)-4-dimethylamino-benzenesulfonamide]
IC50: 0.0089 µM | inhibition at 0.2 µM: 102%

CCN(CC)c1ccc(S(=O)(=O)N(CCC2CC2)c2sc3ccccc3c2C)cc1 [Compound 739, N-(3-Methyl-benzo[b]thiophen-2-yl)-N-(cyclopropyl-ethyl)-4-diethylamino-benzenesulfonamide]
IC50: 0.0232 µM | inhibition at 0.2 µM: 90%

Cc1c(N(CCC2CC2)S(=O)(=O)c2ccc(N3CCSCC3)cc2)sc2ccccc12 [Compound 740, N-(3-Methyl-benzo[b]thiophen-2-yl)-N-(cyclopropyl-ethyl)-4-thiomorpholin-4-yl-benzenesulfonamide]
inhibition at 0.2 µM: 57%

Cc1c(N(CCC2CC2)S(=O)(=O)c2ccc(N3CCOCC3)cc2)sc2ccccc12 [Compound 741, N-(3-Methyl-benzo[b]thiophen-2-yl)-N-(cyclopropyl-ethyl)-4-morpholino-benzenesulfonamide]
IC50: 0.0173 µM | inhibition at 0.2 µM: 101%

Cc1c(N(CCC2CC2)S(=O)(=O)c2ccc(N3CCNCC3)cc2)sc2ccccc12 [Compound 742, N-(3-Methyl-benzo[b]thiophen-2-yl)-N-(cyclopropyl-ethyl)-4-(piperazin-1-yl)-benzenesulfonamide]
inhibition at 0.2 µM: 66%

COc1cc(NS(C)(=O)=O)ccc1S(=O)(=O)N(Cc1ccc(F)c(C(F)(F)F)c1)c1cc2ccccc2s1 [Compound 743, N-(Benzo[b]thiophen-2-yl)-N-(4-fluoro-3-trifluoromethyl-benzyl)-4-methanesulfonylamino-2-methoxy-benzenesulfonamide]
inhibition at 0.2 µM: 32%

COc1cc(NS(C)(=O)=O)ccc1S(=O)(=O)N(Cc1ccc(F)c(C(F)(F)F)c1)c1sc2ccccc2c1Cl [Compound 744, N-(3-Chloro-benzo[b]thiophen-2-yl)-N-(4-fluoro-3-trifluoromethyl-benzyl)-4-methanesulfonylamino-2-methoxy-benzenesulfonamide]
IC50: 0.0573 µM | inhibition at 0.2 µM: 99%

Cc1c(N(CCC2CC2)S(=O)(=O)c2nc3ccccc3n2C)sc2ccccc12 [Compound 745, N-(Cyclopropyl-ethyl)-N-(3-methyl-benzo[b]thiophen-2-yl)-1-methyl-1H-benzimidazole-2-sulfonamide]
IC50: 0.0849 µM | inhibition at 0.2 µM: 74%

Cc1c(N(Cc2ccc(OC(F)(F)F)cc2)S(=O)(=O)c2nc3ccccc3n2C)sc2ccccc12 [Compound 746, N-(3-Methyl-benzo[b]thiophen-2-yl)-N-(4-trifluoromethoxy-benzyl)-1-methyl-1H-benzimidazole-2-sulfonamide]
inhibition at 0.2 µM: 31%

Cc1c(N(Cc2ccc(F)c(C(F)(F)F)c2)S(=O)(=O)c2ccc3c(c2)CC(N)C3)sc2ccccc12 (stereo not drawn) [Compound 747, 2-Amino-indan-N-(3-methyl-benzo[b]thiophen-2-yl)-N-(4-fluoro-3-trifluoromethyl-benzyl)-N-sulfonamide]
% Inh @ 0.2 (μM): 48%

Cc1c(N(CCCCC(F)(F)F)S(=O)(=O)c2ccc(N(C)C)cc2)sc2ccccc12 [Compound 748, N-(3-Methyl-benzo[b]thiophen-2-yl)-N-(5,5,5-trifluoro-pentyl)-4-dimethylamino-benzenesulfonamide]
IC50: 0.0053 µM | inhibition at 0.2 µM: 101%

Cc1c(N(CCCCC(F)(F)F)S(=O)(=O)c2ccc(N3CCOCC3)cc2)sc2ccccc12 [Compound 750, N-(3-Methyl-benzo[b]thiophen-2-yl)-N-(5,5,5-trifluoro-pentyl)-4-morpholino-benzenesulfonamide]
IC50: 0.0092 µM | inhibition at 0.2 µM: 101%

Cc1c(N(CCC2CC2)S(=O)(=O)c2ccc(N3CCCCC3)cc2)sc2ccccc12 [Compound 751, N-(3-Methyl-benzo[b]thiophen-2-yl)-N-(cyclopropyl-ethyl)-4-piperidin-1-yl-benzenesulfonamide]
inhibition at 0.2 µM: 54%

Cc1c(N(CCCCC(F)(F)F)S(=O)(=O)c2ccc(N3CCCCC3)cc2)sc2ccccc12 [Compound 752, N-(3-Methyl-benzo[b]thiophen-2-yl)-N-(5,5,5-trifluoro-pentyl)-4-piperidine-benzenesulfonamide]
% Inh @ 0.2 (μM): 65%

COC(=O)c1ccc(S(=O)(=O)N(Cc2ccc(OC(F)(F)F)cc2)c2sc3ccccc3c2C2CC2)cc1 [Compound 753, N-(3-Cyclopropyl-benzo[b]thiophen-2-yl)-N-(4-trifluoromethoxy-benzyl)-4-carbomethoxy-benzenesulfonamide]
IC50: 0.0272 µM | inhibition at 0.2 µM: 69%

COC(=O)c1ccc(S(=O)(=O)N(Cc2ccc(OC(F)(F)F)cc2)c2sc3ccccc3c2C2CCC2)cc1 [Compound 754, N-(3-Cyclobutyl-benzo[b]thiophen-2-yl)-N-(4-trifluoromethoxy-benzyl)-4-carbomethoxy-benzenesulfonamide]
IC50: 0.0164 µM | inhibition at 0.2 µM: 82%

O=C(O)c1ccc(S(=O)(=O)N(Cc2ccc(OC(F)(F)F)cc2)c2sc3ccccc3c2C2CC2)cc1 [Compound 755, N-(3-Cyclopropyl-benzo[b]thiophen-2-yl)-N-(4-trifluoromethoxyl-benzyl)-4-carboxy-benzenesulfonamide]
IC50: 0.0009 µM | inhibition at 0.2 µM: 101%

O=C(O)c1ccc(S(=O)(=O)N(Cc2ccc(OC(F)(F)F)cc2)c2sc3ccccc3c2C2CCC2)cc1 [Compound 756, N-(3-Cyclobutyl-benzo[b]thiophen-2-yl)-N-(4-trifluoromethoxy-benzyl)-4-carboxy-benzenesulfonamide]
IC50: 0.0014 µM | inhibition at 0.2 µM: 101%
